From patent publication US6737383B1, “Herbicidal oxadiazolidines” (priority 1999, dated 2004)

Tests used:
crabgrass = test: Test B pre/postemergence crabgrass; format: in vivo, Digitaria sanguinalis
Outline: (§1)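 Response is a visual 0-to-10 score relative to untreated plants, where 0 means no effect and 10 means complete control, taken twelve to sixteen days after application. Treatments went onto soil at planting and onto foliage of 1- to 4-leaf plants, using a surfactant-containing non-phytotoxic solvent.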

bedstraw = test: Test B pre/postemergence bedstraw; format: in vivo, Galium aparine
Outline: as §1

rice = test: Test B flood test rice; format: in vivo, Oryza sativa
Outline: (§2)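 Flood test on plants grown to the 2-leaf stage; treated plants kept in greenhouse twelve to sixteen days, then visually rated against controls on a 0 (no effect) to 10 (complete control) scale.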

wild oat = test: Test B pre/postemergence wild oat; format: in vivo, Avena fatua
Outline: as §1

morningglory = test: Test B pre/postemergence morningglory; format: in vivo, Ipomoea hederacea
Outline: as §1

blackgrass = test: Test B pre/postemergence blackgrass; format: in vivo, Alopecurus myosuroides
Outline: as §1

cocklebur = test: Test B pre/postemergence cocklebur; format: in vivo, Xanthium strumarium
Outline: as §1

purple nutsedge = test: Test B pre/postemergence purple nutsedge; format: in vivo, Cyperus rotundus
Outline: as §1

corn = test: Test B pre/postemergence corn; format: in vivo, Zea mays
Outline: as §1

giant foxtail = test: Test B pre/postemergence giant foxtail; format: in vivo, Setaria faberii
Outline: as §1

duck salad = test: Test B flood test duck salad; format: in vivo, Heteranthera limosa
Outline: as §2

wheat = test: Test B pre/postemergence wheat; format: in vivo, Triticum aestivum
Outline: as §1

velvetleaf = test: Test B pre/postemergence velvetleaf; format: in vivo, Abutilon theophrasti
Outline: as §1

bamyardgrass = test: Test B flood test barnyardgrass; format: in vivo, Echinochloa crus-galli
Outline: as §2

smallflower flatsedge = test: Test B flood test smallflower flatsedge; format: in vivo, Cyperus difformis
Outline: as §2

surinam grass = test: Test B pre/postemergence surinam grass; format: in vivo, Brachiaria decumbens
Outline: as §1

[1] = Postemergence, Rate 125 g/ha, scale of 0 to 10 where 0 is no effect and 10 is complete control
[2] = Preemergence, Rate 62 g/ha, scale of 0 to 10 where 0 is no effect and 10 is complete control
[3] = Preemergence, Rate 125 g/ha, 0 is no effect, 10 is complete control
[4] = Preemergence, Rate 250 g/ha, scale 0 to 10, 0 is no effect, 10 is complete control
[5] = Preemergence, Rate 500 g/ha, scale 0 to 10 (0 no effect, 10 complete control)
[6] = Rate 62 g/ha, Postemergence, scale of 0 to 10 where 0 is no effect and 10 is complete control
[7] = Rate 250 g/ha, Postemergence, scale 0 to 10, 0 is no effect, 10 is complete control
[8] = Rate 500 g/ha, Postemergence, scale 0 to 10
[9] = Postemergence (flood test species), Rate 125 g/ha, scale of 0 to 10 where 0 is no effect and 10 is complete control
[10] = Rate 62 g/ha, Postemergence section, flood test species, scale of 0 to 10 where 0 is no effect and 10 is complete control
[11] = Rate 250 g/ha, Postemergence (flood test), scale 0 to 10, 0 is no effect, 10 is complete control
[12] = Rate 500 g/ha, listed under Postemergence (flood test species), scale 0 to 10

CC(C)N(C(=O)n1oc(=O)n(-c2nc(Cl)sc2Cl)c1=O)c1ccc(F)cc1 [Compound 160]
0: Crabgrass plant response rating (crabgrass; [1]) | Crabgrass plant response rating (crabgrass; [2]) | Crabgrass plant response rating (0 to 10 scale) (crabgrass; [3]) | Crabgrass plant response rating (crabgrass; [4]) | Crabgrass plant response rating (crabgrass; [5]) | Crabgrass plant response rating (crabgrass; [6]) | Plant response rating, Crabgrass (crabgrass; [7]) | Crabgrass plant response rating (crabgrass; [8]) | Bedstraw plant response rating (bedstraw; [1]) | Bedstraw plant response rating (bedstraw; [2]) | Bedstraw plant response rating (0 to 10 scale) (bedstraw; [3]) | Bedstraw plant response rating (bedstraw; [4]) | Bedstraw plant response rating (bedstraw; [5]) | Bedstraw plant response rating (bedstraw; [6]) | Plant response rating, Bedstraw (bedstraw; [7]) | Bedstraw plant response rating (bedstraw; [8]) | Rice plant response rating (rice; [9]) | Rice plant response rating (rice; [10]) | Plant response rating, Rice (rice; [11]) | Rice plant response rating (rice; [12]) | Wild oats plant response rating (wild oat; [2]) | Wild oats plant response rating (0 to 10 scale) (wild oat; [3]) | Wild oats plant response rating (wild oat; [4]) | Wild oats plant response rating (wild oat; [5]) | Plant response rating, Wild oats (wild oat; [7]) | Wild oats plant response rating (wild oat; [8]) | Morningglory plant response rating (morningglory; [1]) | Morningglory plant response rating (morningglory; [2]) | Morningglory plant response rating (0 to 10 scale) (morningglory; [3]) | Morningglory plant response rating (morningglory; [4]) | Morningglory plant response rating (morningglory; [5]) | Morningglory plant response rating (morningglory; [6]) | Plant response rating, Morningglory (morningglory; [7]) | Morningglory plant response rating (morningglory; [8]) | Blackgrass plant response rating (blackgrass; [1]) | Blackgrass plant response rating (blackgrass; [2]) | Blackgrass plant response rating (0 to 10 scale) (blackgrass; [3]) | Blackgrass plant response rating (blackgrass; [4]) | Blackgrass plant response rating (blackgrass; [5]) | Blackgrass plant response rating (blackgrass; [6]) | Plant response rating, Blackgrass (blackgrass; [7]) | Blackgrass plant response rating (blackgrass; [8]) | Cocklebur plant response rating (cocklebur; [1]) | Cocklebur plant response rating (cocklebur; [2]) | Cocklebur plant response rating (0 to 10 scale) (cocklebur; [3]) | Cocklebur plant response rating (cocklebur; [4]) | Cocklebur plant response rating (cocklebur; [5]) | Cocklebur plant response rating (cocklebur; [6]) | Plant response rating, Cocklebur (cocklebur; [7]) | Cocklebur plant response rating (cocklebur; [8]) | Nutsedge plant response rating (purple nutsedge; [1]) | Nutsedge plant response rating (purple nutsedge; [2]) | Nutsedge plant response rating (0 to 10 scale) (purple nutsedge; [3]) | Nutsedge plant response rating (purple nutsedge; [4]) | Nutsedge plant response rating (purple nutsedge; [5]) | Nutsedge plant response rating (purple nutsedge; [6]) | Plant response rating, Nutsedge (purple nutsedge; [7]) | Nutsedge plant response rating (purple nutsedge; [8]) | Corn plant response rating (corn; [1]) | Corn plant response rating (corn; [2]) | Corn plant response rating (0 to 10 scale) (corn; [3]) | Corn plant response rating (corn; [4]) | Corn plant response rating (corn; [5]) | Corn plant response rating (corn; [6]) | Plant response rating, Corn (corn; [7]) | Corn plant response rating (corn; [8]) | Giant foxtail plant response rating (giant foxtail; [1]) | Giant foxtail plant response rating (giant foxtail; [2]) | Giant foxtail plant response rating (0 to 10 scale) (giant foxtail; [3]) | Giant foxtail plant response rating (giant foxtail; [4]) | Giant foxtail plant response rating (giant foxtail; [5]) | Giant foxtail plant response rating (giant foxtail; [6]) | Plant response rating, Giant foxtail (giant foxtail; [7]) | Giant foxtail plant response rating (giant foxtail; [8]) | Ducksalad plant response rating (duck salad; [9]) | Ducksalad plant response rating (duck salad; [10]) | Plant response rating, Ducksalad (duck salad; [11]) | Ducksalad plant response rating (duck salad; [12]) | Wheat plant response rating (wheat; [2]) | Wheat plant response rating (0 to 10 scale) (wheat; [3]) | Wheat plant response rating (wheat; [4]) | Wheat plant response rating (wheat; [5]) | Plant response rating, Wheat (wheat; [7]) | Wheat plant response rating (wheat; [8]) | Velvetleaf plant response rating (velvetleaf; [2]) | Velvetleaf plant response rating (0 to 10 scale) (velvetleaf; [3]) | Velvetleaf plant response rating (velvetleaf; [4]) | Velvetleaf plant response rating (velvetleaf; [5]) | Plant response rating, Velvetleaf (velvetleaf; [7]) | Velvetleaf plant response rating (velvetleaf; [8]) | Barnyardgrass plant response rating (bamyardgrass; [9]) | Barnyardgrass plant response rating (bamyardgrass; [10]) | Plant response rating, Barnyardgrass (bamyardgrass; [11]) | Barnyardgrass plant response rating (bamyardgrass; [12]) | S. Flatsedge plant response rating (smallflower flatsedge; [9]) | S. Flatsedge plant response rating (smallflower flatsedge; [10]) | Plant response rating, S. Flatsedge (smallflower flatsedge; [11]) | S. Flatsedge plant response rating (smallflower flatsedge; [12]) | B. signalgrass plant response rating (surinam grass; [1]) | B. signalgrass plant response rating (surinam grass; [2]) | B. signalgrass plant response rating (0 to 10 scale) (surinam grass; [3]) | B. signalgrass plant response rating (surinam grass; [4]) | B. signalgrass plant response rating (surinam grass; [5]) | B. signalgrass plant response rating (surinam grass; [6]) | Plant response rating, B. signalgrass (surinam grass; [7]) | B. signalgrass plant response rating (surinam grass; Rate 500 g/ha, Postemergence, scale 0 to 10, 0 no effect, 10 complete control)
